According to patent publication US20240044922A1, “DEVICE AND METHODS FOR MEASURING PLATELET-FIBRIN CLOT CONTRACTION KINETICS” (University of Kentucky Research Foundation, priority 2022, published 2024):

Test system: washed mouse platelets
Experiment: Clot contraction assay, time-lapse imaging of washed mouse platelets with thrombin, fibrinogen and CaCl2
Format: cell-based
Details: for AUC / Average Velocity / Clot Contraction Extent / Lag time / PHASE 1 % Contraction / PHASE 1 Rate 1 / PHASE 1 t1 / PHASE 2 % Contraction / PHASE 2 Rate 2 / PHASE 2 t2 / PHASE 3 % Contraction / PHASE 3 Rate 3: CaCl2 0.5 mM, fibrinogen 250 μg/mL
[1] = increased thrombin concentration, 10-200 mU/mL

Thrombin
Effect on extent of clot contraction [1]: remained unchanged
Effect on lag time [1]: decreased
Increase of Phase 1 (initiation) rate (over the thrombin concentration range tested): ~5 fold
AUC (thrombin 10 mU/mL): 5.62 AU
Average Velocity (thrombin 10 mU/mL): 0.82 %/min
Clot Contraction Extent (thrombin 10 mU/mL): 80.19%
Lag time (thrombin 10 mU/mL): 28.33 min
PHASE 1 % Contraction (thrombin 10 mU/mL): 4.93%
PHASE 1 Rate 1 (thrombin 10 mU/mL): 4.27 ×10^−3 %/min
PHASE 1 t1 (thrombin 10 mU/mL): 13.33 min
PHASE 2 % Contraction (thrombin 10 mU/mL): 23.95%
PHASE 2 Rate 2 (thrombin 10 mU/mL): 1.02 %/min
PHASE 2 t2 (thrombin 10 mU/mL): 36.00 min
PHASE 3 % Contraction (thrombin 10 mU/mL): 51.32%
PHASE 3 Rate 3 (thrombin 10 mU/mL): 3.93 ×10^−2 %/min
AUC (thrombin 20 mU/mL): 4.90 AU
Average Velocity (thrombin 20 mU/mL): 0.90 %/min
Clot Contraction Extent (thrombin 20 mU/mL): 88.45%
Lag time (thrombin 20 mU/mL): 19.33 min
PHASE 1 % Contraction (thrombin 20 mU/mL): 4.66%
PHASE 1 Rate 1 (thrombin 20 mU/mL): 4.67 ×10^−3 %/min
PHASE 1 t1 (thrombin 20 mU/mL): 11.33 min
PHASE 2 % Contraction (thrombin 20 mU/mL): 31.74%
PHASE 2 Rate 2 (thrombin 20 mU/mL): 1.33 %/min
PHASE 2 t2 (thrombin 20 mU/mL): 36.33 min
PHASE 3 % Contraction (thrombin 20 mU/mL): 52.05%
PHASE 3 Rate 3 (thrombin 20 mU/mL): 3.63 ×10^−2 %/min
AUC (thrombin 30 mU/mL): 4.10 AU
Average Velocity (thrombin 30 mU/mL): 0.94 %/min
Clot Contraction Extent (thrombin 30 mU/mL): 92.41%
Lag time (thrombin 30 mU/mL): 15.33 min
PHASE 1 % Contraction (thrombin 30 mU/mL): 6.03%
PHASE 1 Rate 1 (thrombin 30 mU/mL): 6.67 ×10^−3 %/min
PHASE 1 t1 (thrombin 30 mU/mL): 8.67 min
PHASE 2 % Contraction (thrombin 30 mU/mL): 20.91%
PHASE 2 Rate 2 (thrombin 30 mU/mL): 1.67 %/min
PHASE 2 t2 (thrombin 30 mU/mL): 22.00 min
PHASE 3 % Contraction (thrombin 30 mU/mL): 65.45%
PHASE 3 Rate 3 (thrombin 30 mU/mL): 2.70 ×10^−2 %/min
AUC (thrombin 50 mU/mL): 3.69 AU
Average Velocity (thrombin 50 mU/mL): 0.94 %/min
Clot Contraction Extent (thrombin 50 mU/mL): 92.51%
Lag time (thrombin 50 mU/mL): 10.67 min
PHASE 1 % Contraction (thrombin 50 mU/mL): 6.96%
PHASE 1 Rate 1 (thrombin 50 mU/mL): 27.33 ×10^−3 %/min
PHASE 1 t1 (thrombin 50 mU/mL): 6.67 min
PHASE 2 % Contraction (thrombin 50 mU/mL): 16.04%
PHASE 2 Rate 2 (thrombin 50 mU/mL): 1.97 %/min
PHASE 2 t2 (thrombin 50 mU/mL): 18.00 min
PHASE 3 % Contraction (thrombin 50 mU/mL): 69.51%
PHASE 3 Rate 3 (thrombin 50 mU/mL): 3.10 ×10^−2 %/min
AUC (thrombin 100 mU/mL): 3.32 AU
Average Velocity (thrombin 100 mU/mL): 0.97 %/min
Clot Contraction Extent (thrombin 100 mU/mL): 94.93%
Lag time (thrombin 100 mU/mL): 9.00 min
PHASE 1 % Contraction (thrombin 100 mU/mL): 6.55%
PHASE 1 Rate 1 (thrombin 100 mU/mL): 21.33 ×10^−3 %/min
PHASE 1 t1 (thrombin 100 mU/mL): 5.00 min
PHASE 2 % Contraction (thrombin 100 mU/mL): 19.72%
PHASE 2 Rate 2 (thrombin 100 mU/mL): 2.02 %/min
PHASE 2 t2 (thrombin 100 mU/mL): 18.67 min
PHASE 3 % Contraction (thrombin 100 mU/mL): 68.67%
PHASE 3 Rate 3 (thrombin 100 mU/mL): 3.43 ×10^−2 %/min
